Laboratory results reported in patent publication US10190093B2, “Artificial oocyte activation” (The Curators of the University of Missouri, priority 2013, dated 2019).
Values joined by “and” are separate entries in the source; they are usually repeats but may differ in a detail not shown here. Identical values can stand only once. Marks after values point to notes of the source that are not given here.

Tested on: activated porcine oocytes
Assay: Treatment of chemically (THI/DTT) activated oocytes with TPEN, parthenogenetic embryo development
Format: cell-based, pig
Description: Oocytes were obtained from either pre-pubertal gilt ovaries from an abattoir (Farmland Foods Inc., Milan, Mo.), or sow-derived oocytes that were purchased from Applied Reproductive Technology (Madison, Wis.). Immature oocytes from gilt ovaries were aspirated from medium size (3-6 mm) follicles by using an 18 gauge hypodermic needle attached to a 10 mL syringe. Oocytes with evenly dark cytoplasm and intact surrounding cumulus cells were then selected for maturation. Around 50 cumulus oocyte complexes were place in a well containing 500 μL of maturation medium, TCM 199 (Invitrogen, Grand Island, N.Y.) with 3.05 mM glucose, 0.91 mM sodium pyruvate, 0.57 mM cysteine, 10 ng/mL epidermal growth factor (EGF), 0.5 mg/mL luteinizing hormone (LH), 0.5 mg/mL follicle stimulating hormone (FSH), 10 ng/mL gentamicin (APP Pharm, Schaumburg, Ill.), and 0.1% polyvinyl alcohol (PVA) for 42-44 hr at 38.5° C., 5% CO2, in humidified air. […] At the end of the maturation, the surrounding cumulus cells were removed from the oocytes by vortexing for 3 min in the presence of 0.1% hyaluronidase. Oocytes with a visible polar body were selected in manipulation medium (TCM199 with 0.6 mM NaHCO3, 2.9 mM Hepes, 30 mM NaCl, 10 ng/mL gentamicin, and 3 mg/mL bovine serum albumin [BSA]; and osmolarity of 305) and then used for the experiments. Different oocyte activation methods were used for the experiments. As conventional activation methods, either electrical or chemical activation was used. For electrical activation, mature oocytes were activated in activation medium (0.3 M mannitol, 1.0 mM CaCl2, 0.1 mM MgCl2, and 0.5 mM Hepes) by two direct-current (DC) pulses (1-sec interval) at 1.2 kV/cm for 30 μsec (using BTX Electro Cell Manipulator, Harvard Apparatus, Holliston, Mass.). […] For TPEN mediated activation, mature oocytes were incubated in TL-Hepes media with various concentrations of TPEN for different durations. […] At the end of the culture, where applicable, the frequency of cleaved embryos and blastocysts, and total cell number in the blastocysts were recorded. Hoechst 33342 (1.2 mg/mL) was used to stain nuclei and the embryos were then evaluated by epi-fluorescence microscopy. Treatment of activated oocytes with TPEN was investigated for the potential to increase the efficiency of oocyte activation. […] It was hypothesized that the detrimental effect was due to excess stimuli from Ca^2+ signaling and TPEN. Therefore, lower concentrations of TPEN were introduced after activating oocytes with a conventional method. Incubating activated oocytes with a lower concentration of TPEN increased developmental potential of parthenogenetic embryos.

c1ccc(CN(CCN(Cc2ccccn2)Cc2ccccn2)Cc2ccccn2)nc1 [TPEN, N,N,N′,N′-tetrakis(2-pyridylmethyl)ethane-1,2-diamine]
% blastocysts (THI/DTT + 5 μM TPEN, 30 min): 27.2±1.7% and 27.2^b % | % cleaved (THI/DTT + 5 μM TPEN, 30 min): 74.6^b % | Total cell number in blastocysts (THI/DTT + 5 μM TPEN, 30 min): 33.1 ± 2.6^b | % blastocysts (THI/DTT + 10 μM TPEN, 10 min): 21.7^b % | % cleaved (THI/DTT + 10 μM TPEN, 10 min): 81.9^b % | Total cell number in blastocysts (THI/DTT + 10 μM TPEN, 10 min): 31.2 ± 2.6^b | blastocyst formation (chemically activated oocytes incubated with TPEN 100 μM, 45 min): no blastocyst formation was observed
